From ChEMBL document CHEMBL1144098, “Laxifloranone, a new phloroglucinol derivative from Marila laxiflora” (J Nat Prod, 1999) come the findings set out here.

The test system of assay [1] is Human immunodeficiency virus 1. Put plainly: Antiviral activity against HIV1 in human CEM-SS cells assessed as cytoprotection against virus-induced cytopathogenicity. The class given is functional.
Assay [2] concerns Human immunodeficiency virus 1. Put plainly: Antiviral activity against HIV1 in human CEM-SS cells assessed inhibition of virus-induced cytopathic effects. The class given is functional, organism-based.
The mark [3] stands for this setting: Human immunodeficiency virus 1, CEM-SS.

Converted amounts (≈) assume the structure as drawn. The source made the active and inactive calls. No cut-off for these calls is given here.

Turning to `CCOC(=O)NN(OC(=O)C[C@H](c1ccccc1)[C@@]12C(=O)[C@@](CC=C(C)C)(C[C@@H](CC=C(C)C)C1(C)C)C(=O)C(C(=O)CC(C)C)=C2O)C(=O)OCC`, the result in assay [1] and in assay [2] was inactive.
`CC(C)=CC[C@@H]1C[C@@]2(CC=C(C)C)C(=O)C(C(=O)CC(C)C)=C(O)[C@]([C@H](CC(=O)O)c3ccccc3)(C2=O)C1(C)C` [LAXIFLORANONE]: the Activity in assay [1] came out at 80%. In assay [2] (setting [3]), the EC50 is 0.62 µg/mL (≈ 1.1 µM) and half-maximal inhibition (IC50) was put at 6.6 µg/mL (≈ 11.7 µM).
